A word on the IC50: it is the point on the concentration scale where inhibition reaches its midpoint. A higher IC50 goes with lower potency.

Assay [1] has as its target T1, Histone-lysine N-methyltransferase EZH2/Polycomb protein EED/Polycomb protein SUZ12 (Human, UniProt O75530+Q15022+Q15910). Nature of the assay: EZH2 LC-MS Assay. How it is done:
Representative compounds of the invention were serially and separately diluted 3-fold in DMSO to obtain twelve concentrations. […] Solutions (6 μL) of 80 nM wild type PRC2 (wtPRC2) complex and 60 μM SAM in reaction buffer (20 mM Tris, pH 8.0, 0.1% BSA, 0.01% Triton, 0.5 mM DTT) were added to the wells that were then incubated with the test compound for 20 min. A 6 μL solution of 3 μM of the substrate peptide H3K27me1 (histone H3[21-44]-K27me1-biotin) and 6 μM regulatory peptide H3K27me3 (histone H3[21-44]-K27me3) in reaction buffer was added to initiate each reaction. […] The data were fit to a dose response equation using the program Helios to get the IC50 values of the test compound.

In assay [2] the target is T1, Histone-lysine N-methyltransferase EZH2/Polycomb protein EED/Polycomb protein SUZ12. Nature of the assay: ELISA Assay. The protocol:
ELISA protocol: Cell lysates were transferred to the wells of a 384-well plate and the final volume was adjusted to 50 μL per well with PBS. The plate was sealed, centrifuged at 2,000 rpm for 2 min and incubated at 4° C. for about 16 h. The plate was washed with TBST buffer (1×TBS (10×TBS: 24.2 g Tris (Sigma, T6066), 80 g NaCl (Sigma, S3014) to 1 L of water and adjust pH to 7.6 with HCl) with 0.1% Tween-20). Blocking buffer (TBST, 5% BSA; 50 μL per well) was added and the plate was incubated for 1 h at rt. The blocking buffer was removed and primary antibody was added (30 μL per well). […] The primary antibody was incubated in the plate at rt for 1 h. The wells were washed with TBST and incubated with secondary antibody for 1 h at rt.
For orientation: ELISA stands for enzyme-linked immunosorbent assay.

T1 sequence (Q15910 whole entry): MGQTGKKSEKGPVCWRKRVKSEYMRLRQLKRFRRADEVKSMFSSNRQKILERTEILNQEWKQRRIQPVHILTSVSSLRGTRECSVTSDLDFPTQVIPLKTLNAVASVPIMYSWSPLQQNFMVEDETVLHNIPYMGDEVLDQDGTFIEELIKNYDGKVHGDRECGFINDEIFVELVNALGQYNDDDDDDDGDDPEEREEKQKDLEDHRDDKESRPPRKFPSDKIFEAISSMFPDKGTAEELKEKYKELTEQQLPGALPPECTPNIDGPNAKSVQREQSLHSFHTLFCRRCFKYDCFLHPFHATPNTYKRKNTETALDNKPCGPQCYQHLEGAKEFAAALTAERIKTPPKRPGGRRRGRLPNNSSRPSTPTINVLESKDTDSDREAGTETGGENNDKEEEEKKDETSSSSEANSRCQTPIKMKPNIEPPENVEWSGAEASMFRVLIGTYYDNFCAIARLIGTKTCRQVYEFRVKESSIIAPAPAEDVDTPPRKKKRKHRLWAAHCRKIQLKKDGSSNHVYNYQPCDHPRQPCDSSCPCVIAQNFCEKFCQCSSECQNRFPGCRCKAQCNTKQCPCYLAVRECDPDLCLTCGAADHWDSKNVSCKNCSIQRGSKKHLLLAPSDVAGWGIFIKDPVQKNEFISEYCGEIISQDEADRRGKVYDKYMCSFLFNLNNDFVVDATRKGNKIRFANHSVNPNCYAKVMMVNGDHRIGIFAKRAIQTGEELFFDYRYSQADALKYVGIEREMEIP
T1 sequence (O75530 whole entry): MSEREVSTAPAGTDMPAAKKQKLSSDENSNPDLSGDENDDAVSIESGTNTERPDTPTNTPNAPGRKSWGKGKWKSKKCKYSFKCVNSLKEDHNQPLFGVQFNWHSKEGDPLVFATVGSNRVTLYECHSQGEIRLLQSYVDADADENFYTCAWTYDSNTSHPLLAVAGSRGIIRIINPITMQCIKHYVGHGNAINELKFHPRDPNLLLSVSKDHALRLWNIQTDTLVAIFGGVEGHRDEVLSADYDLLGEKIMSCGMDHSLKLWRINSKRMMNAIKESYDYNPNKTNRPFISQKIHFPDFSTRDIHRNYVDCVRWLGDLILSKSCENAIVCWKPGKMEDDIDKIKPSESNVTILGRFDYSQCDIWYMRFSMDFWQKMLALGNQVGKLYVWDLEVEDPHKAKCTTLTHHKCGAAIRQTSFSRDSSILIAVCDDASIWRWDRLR
T1 sequence (Q15022 whole entry): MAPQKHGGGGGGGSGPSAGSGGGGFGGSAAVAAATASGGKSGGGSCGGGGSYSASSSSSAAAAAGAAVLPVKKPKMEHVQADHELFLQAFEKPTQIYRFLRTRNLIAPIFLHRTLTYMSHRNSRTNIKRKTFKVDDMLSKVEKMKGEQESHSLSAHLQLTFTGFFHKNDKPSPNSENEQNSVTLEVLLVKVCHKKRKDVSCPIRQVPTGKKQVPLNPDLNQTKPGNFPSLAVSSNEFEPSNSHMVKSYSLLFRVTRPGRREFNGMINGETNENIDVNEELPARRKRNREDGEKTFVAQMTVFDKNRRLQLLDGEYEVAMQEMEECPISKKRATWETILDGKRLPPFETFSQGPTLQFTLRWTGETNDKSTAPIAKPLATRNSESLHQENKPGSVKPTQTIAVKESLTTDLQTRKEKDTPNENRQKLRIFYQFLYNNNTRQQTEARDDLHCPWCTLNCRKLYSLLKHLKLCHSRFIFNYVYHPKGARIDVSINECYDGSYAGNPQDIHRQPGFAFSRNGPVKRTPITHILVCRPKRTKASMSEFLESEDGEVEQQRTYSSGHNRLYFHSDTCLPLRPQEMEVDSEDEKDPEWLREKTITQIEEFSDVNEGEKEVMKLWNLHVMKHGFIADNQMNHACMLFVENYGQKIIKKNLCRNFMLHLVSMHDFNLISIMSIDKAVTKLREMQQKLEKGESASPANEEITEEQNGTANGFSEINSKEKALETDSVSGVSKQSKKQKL

As for `COCCOC(=O)Nc1cnc(NCC2CCC(Nc3ccc4ccnc(Cl)c4n3)CC2)nc1` (stereo not drawn) [US12544374, Compound C16], the half-inhibitory concentration (IC50) in assay [1] was 15 nM; in assay [2], 27 nM. `Clc1nccc2ccc(NC3CCC(CNc4ncc(COC5COC5)cn4)CC3)nc12` (stereo not drawn) [US12544374, Compound C35] displayed an IC50 in assay [1] of 27 nM.

For the origin of these results see BindingDB's records for patent US12544374 (Novartis, 2026).
